For assay [1], the target named is T1, serotonin reuptake ([3H]-5-HT uptake into rat cortical synaptosomes) (Rattus norvegicus, UniProt P31652).
T1 construct: Whole brains from male Wistar rats (125-225 g), excluding cerebellum, are homogenized; from tissue; host or cells: synaptosomal fraction of whole brain (excluding cerebellum) from male Wistar rats
The assay can be described thus: [3H]-5-HT uptake into rat cortical synaptosomes. The format is biochemical. The conditions noted are these: result in words. As for the experimental part: Measurements of [^3H]-5-HT Uptake into Rat Cortical Synaptosomes.
Whole brains from male Wistar rats (125-225 g), excluding cerebellum, are homogenized in 0.32 M sucrose supplemented with 1 mM nialamid with a glass/teflon homogenizer. The homogenate is centrifuged at 600×g for 10 min at 4° C. The pellet is discarded and the supernatant is centrifuged at 20.000×g for 55 min. The final pellet is homogenized (20 sec) in this assay buffer (0.5 mg original tissue/well). Test compounds (or buffer) and 10 nM [^3H]-5-HT are added to 96 well plates and shaken briefly. 10 Composition of assay buffer: 123 mM NaCl, 4.82 mM KCl, 0.973 mM CaCl2, 1.12 mM MgSO4, 12.66 mM Na2HPO4, 2.97 mM NaH2PO4, 0.162 mM EDTA, 10 mM glucose and 1 mM ascorbic acid. Buffer is oxygenated with 95% 02/5% C02 for 10 min at 37° C. and pH is adjusted 7.4. The incubation is started by adding tissue to a final assay volume of 0.2 mL. After 15 min incubation with radioligand at 37° C., samples are filtered 15 directly on Unifilter GF/C glass fiber filters (soaked for 1 hour in 0.1% polyethylenimine) under vacuum and immediately washed with 3×0.2 ml assay buffer. Non-specific uptake is determined using citalopram (10 μM final concentration). Citalopram is included as reference in all experiments as dose-response curve.

For assay [2], the target named is T2, norepinephrine uptake ([3H]-noradrenaline uptake into rat cortical synaptosomes) (Rattus norvegicus, UniProt Q9WTR4).
T2 construct: Fresh cortex from male Wistar rats (125-225 g) are homogenized in 0.4M sucrose; from tissue; host or cells: synaptosomal fraction of fresh cortex from male Wistar rats
The assay can be described thus: [3H]Noradrenaline uptake into rat cortical synaptosomes. The format is biochemical. The conditions noted are these: result in words. As for the experimental part: Measurements of [^3 H]Noradrenaline Uptake into Rat Cortical Synaptosomes.
Fresh cortex from male Wistar rats (125-225 g) are homogenized in 0.4M sucrose with a glass/teflon homogenizer. The homogenate is centrifuged at 600×g for 10 min at 4° C. The pellet is discarded and the supernatant is centrifuged at 20.000×g for 55 min. The final pellet is homogenized (20 sec) in this assay buffer (6 mg original tissue/mL=[…]). Test compounds (or buffer) and 10 nM [^3H]-noradrenaline are added to deep 96 well plates and shaken briefly. Composition of assay buffer: 123 mM NaCl, 4.82 mM 1Cl, 0.973 mM CaCl2, 1.12 mM MgSO4, 12.66 MM Na2HPO4, 2.97 MM NaH2PO4, 0.162 mM EDTA, 10 mM glucose and 1 mM ascorbic acid. Buffer is oxygenated with 95% 02/5% C02 for 10 min at 37° C. and pH is adjusted 7.4. The incubation is started by adding tissue to a final assay volume of 1 ml. After 15 min incubation with radioligand at 37° C., samples are filtered directly on Unifilter GF/C glass fiber filters (soaked for 1 hour in 0.1% polyethylenimie) under vacuum and immediately washed with 3×1 mL assay buffer. Non-specific uptake is determined using talsupram ([…] final concentration). Duloxetine is included as reference in all experiments as dose-response curve.

T2 sequence (Q9WTR4 1-597): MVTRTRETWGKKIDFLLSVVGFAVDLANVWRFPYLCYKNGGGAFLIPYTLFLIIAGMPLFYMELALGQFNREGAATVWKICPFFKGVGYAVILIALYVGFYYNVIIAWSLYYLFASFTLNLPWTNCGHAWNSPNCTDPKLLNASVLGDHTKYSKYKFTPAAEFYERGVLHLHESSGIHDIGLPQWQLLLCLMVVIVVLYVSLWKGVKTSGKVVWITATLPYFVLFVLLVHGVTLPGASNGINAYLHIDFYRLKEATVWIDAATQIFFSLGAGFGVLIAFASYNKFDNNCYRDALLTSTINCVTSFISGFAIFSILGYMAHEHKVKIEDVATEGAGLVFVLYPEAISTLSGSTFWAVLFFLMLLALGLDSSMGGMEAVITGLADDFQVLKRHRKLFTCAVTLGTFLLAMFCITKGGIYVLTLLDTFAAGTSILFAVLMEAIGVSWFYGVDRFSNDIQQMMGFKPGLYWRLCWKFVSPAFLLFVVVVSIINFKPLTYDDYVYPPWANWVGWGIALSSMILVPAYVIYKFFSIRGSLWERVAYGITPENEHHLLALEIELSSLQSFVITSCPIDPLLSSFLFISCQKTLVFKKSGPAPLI
T1 sequence (P31652 whole entry): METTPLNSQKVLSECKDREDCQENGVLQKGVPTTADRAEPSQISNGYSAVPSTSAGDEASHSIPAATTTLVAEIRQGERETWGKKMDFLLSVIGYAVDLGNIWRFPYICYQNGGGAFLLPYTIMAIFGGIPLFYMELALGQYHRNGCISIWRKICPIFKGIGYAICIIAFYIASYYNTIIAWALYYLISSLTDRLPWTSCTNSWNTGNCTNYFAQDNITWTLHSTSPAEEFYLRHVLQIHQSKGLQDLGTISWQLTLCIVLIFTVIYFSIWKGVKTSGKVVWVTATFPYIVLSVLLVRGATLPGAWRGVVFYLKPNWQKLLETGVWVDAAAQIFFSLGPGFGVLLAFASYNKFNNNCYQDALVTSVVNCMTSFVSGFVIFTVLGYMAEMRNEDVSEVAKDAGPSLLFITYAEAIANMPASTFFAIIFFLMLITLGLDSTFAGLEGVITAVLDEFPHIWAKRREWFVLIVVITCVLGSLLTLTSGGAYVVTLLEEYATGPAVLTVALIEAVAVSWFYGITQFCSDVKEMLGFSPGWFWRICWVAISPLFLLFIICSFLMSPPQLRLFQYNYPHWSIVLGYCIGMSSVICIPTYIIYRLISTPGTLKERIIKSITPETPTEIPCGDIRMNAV

On to `Cc1ccc(Oc2ccccc2C2=CCNCC2)cc1` [1e, 4-[2-(4-Methylphenoxy)phenyl]-1,2,3,6-tetrahydropyridine], for which, in assay [1], the serotonin reuptake inhibition result was “did show serotonin reuptake inhibition”. The norepinephrine uptake inhibition entry in assay [2] is recorded as “did not show norepinephrine uptake inhibition”.

On to `Cc1ccc(Oc2ccccc2C2CCNCC2)cc1C` [3h, 4-[2-(3,4-Dimethyl-phenoxy)-phenyl]-piperidine], for which the serotonin reuptake inhibition entry in assay [1] is reported as “did show serotonin reuptake inhibition”. Further, in assay [2], the norepinephrine uptake inhibition result was “did not show norepinephrine uptake inhibition”.

For `COc1ccc(Oc2ccccc2C2CCNCC2)cc1OC` [3m, 4-[2-(3,4-Dimethoxy-phenoxy)-phenyl]-piperidine], the serotonin reuptake inhibition result in assay [1] was “did show serotonin reuptake inhibition”. For the same compound, the norepinephrine uptake inhibition result in assay [2] was “did not show norepinephrine uptake inhibition”.

As for `Cc1cc(Oc2ccccc2C2CCNCC2)c(C)c(C)c1C` [3i, 4-[2-(2,3,4,5-Tetramethyl-phenoxy)-phenyl]-piperidine], the serotonin reuptake inhibition entry in assay [1] is “did show serotonin reuptake inhibition”. In addition, in assay [2], the norepinephrine uptake inhibition result is given as “did not show norepinephrine uptake inhibition”.

For `Fc1ccc(Oc2ccccc2C2=CCNCC2)cc1` [1d, 4-[2-(4-Fluorophenoxy)phenyl]-1,2,3,6-tetrahydropyridine], in assay [1], the serotonin reuptake inhibition result is “did show serotonin reuptake inhibition”. In addition, the norepinephrine uptake inhibition entry in assay [2] was “did not show norepinephrine uptake inhibition”.

Regarding `Cc1cc(F)ccc1Oc1ccccc1C1=CCNCC1` [1c, 4-[2-(4-Fluoro-2-methylphenoxy)phenyl]-1,2,3,6-tetrahydropyridine], the serotonin reuptake inhibition entry in assay [1] is “did show serotonin reuptake inhibition”. In addition, the norepinephrine uptake inhibition entry in assay [2] is listed as “did not show norepinephrine uptake inhibition”.

In the case of `Clc1ccc(Oc2ccccc2C2=CCNCC2)cc1` [1b, 4-[2-(4-Chlorophenoxy)phenyl]-1,2,3,6-tetrahydropyridine], in assay [1], the serotonin reuptake inhibition result is recorded as “did show serotonin reuptake inhibition”. Besides, in assay [2], the norepinephrine uptake inhibition result is listed as “did not show norepinephrine uptake inhibition”.

As to `Cc1ccc(Oc2ccccc2C2=CCNCC2)c(C)c1` [1a, 4-[2-(2,4-Dimethylphenoxy)phenyl]-1,2,3,6-tetrahydropyridine], the serotonin reuptake inhibition entry in assay [1] is recorded as “did show serotonin reuptake inhibition”. The norepinephrine uptake inhibition result in assay [2] is recorded as “did not show norepinephrine uptake inhibition”.

Regarding `COc1ccc(Oc2ccccc2C2=CCNCC2)cc1` [1f, 4-[2-(4-Methoxyphenoxy)phenyl]-1,2,3,6-tetrahydropyridine], in assay [1], the serotonin reuptake inhibition result is on record as “did show serotonin reuptake inhibition”. In assay [2], the norepinephrine uptake inhibition entry is reported as “did not show norepinephrine uptake inhibition”.

These data come from patent US20060293360A1, “4-(2-Phenyloxyphenyl)-piperidine or-1,2,3,6-tetrahydropyridine derivatives as serotonin reuptake inhibitors” (H. Lundbeck A/S, priority 2003, published 2006).
